Like-named read-outs stand apart in the source and are kept apart here.
Tests used:
[1] = tested on: mesenteric resistance vessels; assay: Dilation of cannulated mesenteric resistance vessels
Description: Vessels were mounted onto cannulas and equilibrated at 80 mm Hg. […] The vessels were continuously constricted with 1 μM phenylephrine. […] At the conclusion of the experiment, the vessels were superfused in a Ca^2+-free solution to determine maximal dilation. Data shown are mean+s.e.m., relative to maximal dilation determined in Ca^2+-free solution. N=4.

[2] = biological target: T1, human KCNN3 (SK3) (Homo sapiens, UniProt P0DP23+Q9UGI6); assay: Whole-cell patch clamp of KCa potassium channel activator activity in transfected HEK293 cells; type: cell-based; conditions: HEK293 SK3 whole-cell currents
T1 construct: GFP; expressed in transfected cells; host or cells: HEK293
Source text: Currents were activated by 200 msec depolarizing ramps between −120 mV and +30 mV, from a holding potential of −90 mV, and then deactivated by repolarization to the holding potential. […] Colored bars indicate application of the XX-03-64 and XX-03-56 agonists.
Currents were activated by 200 msec depolarizing ramps between −120 mV and +30 mV, from a holding potential of −90 mV, and then deactivated by repolarization to the holding potential. Voltage ramps were applied every 5 seconds. The bath solution was 140 mM NaCl, 4 mM KCl, 0.1 mM CaCl2, 3 mM Mg Cl2, 10 mM HEPES (pH 7.4) and the pipette solution was 150 mM KCl, 5 mM TES (pH 7.2), 2 mM HEDTA, and 1 μM free Ca^2+. The free Ca^2+ concentration was calculated using the Max Chelator program and confirmed using a Ca^2+ electrode (Orion). Agonists were superfused in the bath solution.

[3] = IV bolus in mouse with systolic heart failure, left ventricular pressure-volume recording; type: in vivo; conditions: IV bolus 3 mg/kg, wildtype mouse with heart failure (FAC 38%)
Description: (§1) FIG. 22 depicts data of a wildtype mouse with heart failure (FAC 38%) given an IV bolus of SKA-31 (3 mg/kg) through the left internal jugular vein during simultaneous recording of left ventricular pressure and volume using a Milar conductance catheter inserted through the right carotid artery.
as §1, with “In this experiment,” for “FIG. 22 depicts data of”, “38%) was” for “38%)”, “artery. (FIG. 22)” for “artery.”
BK channel deficient mice and wildtype littermates developed an ischemic cardiomyopathy after surgical ligation of the left anterior descending coronary artery. Systolic heart failure was confirmed six weeks later by noting a fractional area of change (FAC) of 40% or lower on 2D echocardiography (Visualsonics Vevo 2100). […] Continuous LV pressure and volume measurements were recorded (MPVS Ultra by Milar with PowerLab 4/35 and LabChart by ADInstruments). After stable baseline LV measurements were recorded, vehicle (Cremophor EL made by Calbiochem) was infused intravenously into the cannulated internal jugular vein as a single bolus in the same volume later used to deliver an intravenous bolus of SKA-31 (Tocris) at 3 mg/kg. […]

[4] = tested on: SK channels; conditions: cited from earlier work
[5] = rats; cited from earlier work
[6] = mice; cited from earlier work
[7] = cited from earlier work
[8] = cited from earlier work; for lowering of mean arterial pressure: 30 mg/kg
[9] = tested on: SK3 and IK1 channels; assay: Electrophysiology of freshly isolated mesenteric endothelial cells; type: cell-based, mice
Source text: FIGS. 18A-18D collectively are graphs showing electrophysiological characterization of SK channels in freshly isolated mesenteric endothelial cells.
Endothelial cells were isolated from third-order mesenteric arteries of mice using enzymatic digestion followed by labeling the endothelial cells with CD34 antibody-labeled magnetic beads, collecting them using a magnet and then releasing them from the beads by competition. To measure both SK3 and IK1 currents, the cells were dialyzed with KCl-solution containing 3 μM free Ca^2+ and currents elicited using voltage ramps and by the activator NS-309 (see FIGS. 18A-18B).

[10] = biological target: T2, BK channels (Mus musculus, UniProt Q08460); assay: Myogenic tone of pressurized mesenteric arteries with BK channel blocker; parameters: species or system mice; conditions: for increase of constriction: 120 mm Hg
T2 construct: from tissue; host or cells: third-order mesenteric resistance arteries of mice (sham and heart failure)
Description: FIG. 11A is a graph showing the effect of paxilline on myogenic tone measured at 120 mm Hg. Constriction induced by paxilline was calculated as the difference between myogenic tone (%) pre- and post-paxilline. Mean+s.e.m. No heart failure (no HF): N=6 vessels; heart failure (HF): N=5 vessels. ** P<0.01, Student's t test. FIG. 11B is a graph showing that myogenic tone is equivalent in paxilline-treated vessels from control mice and mice with heart failure. Mean+s.e.m. No HF: N=6 vessels; HF: N=5 vessels.
If HF alters myogenic tone by reducing BK channel expression and currents, then the effect of paxilline should be reduced. […] Inhibiting BK channels with paxilline in sham-treated (no HF) control mice caused an increase in myogenic tone, approximating the increased myogenic tone of vessels isolated from HF mice (see FIG. 11B).

[11] = two hours after IP injection of 100 μg (5 μg/g); cited from earlier work
[12] = cited from earlier work; remark: listed apart in the source
[13] = biological target: T2, BK channels; assay: Whole cell K+ currents in freshly isolated mesenteric VSM cells; type: cell-based, mice; conditions: control VSM cells, 2 μM Ang II
Description: Whole cell K^+ currents at baseline (black trace) and after exposure to 1 μM paxilline (red trace in FIG. 14A) or 2 μM Ang II (blue trace in FIG. 14B). The intrapipette solution contained 9 μM Ca^2+.
Conversely, Ang II (2 μM) or phenylephrine (10 μM) may differentially modulate channel function in VSM cells isolated from HF mice. Ang II inhibits BK channel function through its effects on PKC, c-Src and Nox (Lu et al. 2010). Ang II causes less inhibition if BK channels are already modified by PKC, c-Src or Nox pathways, as compared to the effect on BK channels from control VSM cells, in which Ang II suppressed BK current by 50% (see FIG. 14B).
Two determinants of BK activity are used: STOCs and whole-cell current density. BK currents are a very large fraction of the total K^+ currents in freshly isolated mesenteric VSM cells (see FIG. 14A). […] PKCα and PKCδ may be the relevant PKC isoforms, which are further delineated using specific inhibitors.

[14] = mesenteric arteries from HF mice
[15] = mesenteric arteries from mice without HF

T2 sequence (Q08460 whole entry): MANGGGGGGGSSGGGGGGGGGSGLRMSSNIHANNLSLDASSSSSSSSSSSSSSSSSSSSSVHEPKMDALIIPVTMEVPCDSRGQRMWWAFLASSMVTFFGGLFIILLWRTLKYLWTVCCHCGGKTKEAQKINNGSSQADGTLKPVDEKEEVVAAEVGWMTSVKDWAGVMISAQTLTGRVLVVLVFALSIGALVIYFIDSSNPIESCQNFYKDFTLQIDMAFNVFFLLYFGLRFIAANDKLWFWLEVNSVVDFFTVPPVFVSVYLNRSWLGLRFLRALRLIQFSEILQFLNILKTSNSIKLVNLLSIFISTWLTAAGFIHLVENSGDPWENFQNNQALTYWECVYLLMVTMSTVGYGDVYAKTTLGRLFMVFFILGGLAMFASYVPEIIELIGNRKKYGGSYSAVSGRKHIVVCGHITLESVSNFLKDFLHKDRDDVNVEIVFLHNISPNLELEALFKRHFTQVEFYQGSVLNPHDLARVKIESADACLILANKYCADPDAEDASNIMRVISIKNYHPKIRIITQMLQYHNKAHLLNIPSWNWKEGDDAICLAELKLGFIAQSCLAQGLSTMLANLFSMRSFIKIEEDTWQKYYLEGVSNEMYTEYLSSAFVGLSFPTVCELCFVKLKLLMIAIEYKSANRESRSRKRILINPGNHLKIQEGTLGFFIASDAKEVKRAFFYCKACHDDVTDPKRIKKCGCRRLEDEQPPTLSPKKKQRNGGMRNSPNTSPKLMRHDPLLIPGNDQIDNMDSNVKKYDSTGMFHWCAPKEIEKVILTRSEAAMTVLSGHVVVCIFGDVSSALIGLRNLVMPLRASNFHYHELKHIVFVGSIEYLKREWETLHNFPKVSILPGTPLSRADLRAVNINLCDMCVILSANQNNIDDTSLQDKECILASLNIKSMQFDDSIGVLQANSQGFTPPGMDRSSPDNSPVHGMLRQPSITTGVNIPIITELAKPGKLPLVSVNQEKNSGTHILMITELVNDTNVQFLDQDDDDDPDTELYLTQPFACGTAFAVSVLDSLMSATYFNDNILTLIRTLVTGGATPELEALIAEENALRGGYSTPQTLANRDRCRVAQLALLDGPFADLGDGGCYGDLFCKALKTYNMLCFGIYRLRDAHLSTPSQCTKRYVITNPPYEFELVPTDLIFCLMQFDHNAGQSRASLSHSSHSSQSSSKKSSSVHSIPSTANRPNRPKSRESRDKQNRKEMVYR
T2 sequence (Q8CAE3 whole entry partner): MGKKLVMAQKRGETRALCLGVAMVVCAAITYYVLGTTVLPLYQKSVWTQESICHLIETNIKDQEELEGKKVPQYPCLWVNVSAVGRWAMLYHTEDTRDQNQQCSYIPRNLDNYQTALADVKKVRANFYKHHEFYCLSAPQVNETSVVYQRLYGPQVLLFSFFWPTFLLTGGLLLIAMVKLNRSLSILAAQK

Question: With `Clc1ccccc1C(c1ccccc1)(c1ccccc1)n1cccn1` [TRAM-34] as the molecule, how does the “effect on SKA-31 (1 μM)-mediated vasodilation” value ([1]; intraluminal 1 μM TRAM-34 and 100 nM apamin together, phenylephrine-constricted vessels) read?
Answer: prevented

Question: For `COc1ccc2c(ccc3sc(N)nc32)c1` [XX-03-52], which “Note: rank of activity” value [2] is on record?
Answer: 2nd most active

Question: With `Nc1nc2c(ccc3cc(Cl)ccc32)s1` [XX-03-56] as the molecule, how does the “Note: rank of activity” value [2] read?
Answer: Most active

Question: Which cardiac work [3] does the source give for `Nc1nc2c(ccc3ccccc32)s1` [XX-03-58, naphtha[1,2-d]thiazol-2-ylamine] here?
Answer: improves cardiac work

Question: What about the “EC50 of SK channel activation” value [4] of the same molecule?
Answer: low μM range

Question: What about the acute toxicity [5] of the same molecule?
Answer: no acute toxicity

Question: And the acute toxicity [6]?
Answer: no acute toxicity

Question: What about the free plasma level ([7]; 10 mg/kg IP, 24 h) of the same molecule?
Answer: 300 nM

Question: What about the plasma concentration ([7]; 10 mg/kg IP, mice, 2 h) of the same molecule?
Answer: 5500 nM

Question: What about the plasma concentration ([7]; 10 mg/kg IP, mice, 4 h) of the same molecule?
Answer: 1400 nM

Question: And the plasma concentration ([7]; 10 mg/kg IP, mice, 24 h)?
Answer: 500 nM

Question: What about the free in plasma ([7]; mice) of the same molecule?
Answer: 61%

Question: And the plasma protein-bound ([7]; mice)?
Answer: 39%

Question: What about the “lowering of mean arterial pressure” value ([8]; mice with hypertension) of the same molecule?
Answer: 12 mm Hg

Question: What about the “lowering of mean arterial pressure” value ([8]; normal mice) of the same molecule?
Answer: 6 mm Hg

Question: What about the “lowering of blood pressure” value ([8]; single IP injection 10 mg/kg, at 24 h) of the same molecule?
Answer: 4 mm Hg

Question: And the dilation of vessels ([1]; intraluminal 250 nM or 1 μM, vessels of control mice and mice with HF)?
Answer: effectively dilated the vessels

Question: What about the dilation of vessels ([1]; phenylephrine-constricted vessels of BK β1 null mice) of the same molecule?
Answer: caused dilatation of vessels from β1 null mice to a similar extent as vessels from WT mice

Question: Which “Note: rank of activity” value [2] does the source give for `Cc1ccc2ccc3sc(N)nc3c2c1` [XX-03-64] here?
Answer: least active

Question: Which “endothelial cell membrane potential” value ([9]; carbachol 2 μM) does the source give for `C[N+](C)(C)CCOC(N)=O` [carbachol] here?
Answer: hyperpolarization of endothelial cell membrane potential

Question: What does the source list for `CC(C)(O)[C@H]1O[C@H]2CC[C@@]3(C)[C@@](O)(CC[C@H]4Cc5c([nH]c6ccccc56)[C@@]43C)C2=CC1=O` [paxilline]?
Answer: relative increase in myogenic tone [10, 14]: 3%; increase of constriction [10, 14]: 0.9%; relative increase in myogenic tone [10, 15]: 51.9%; increase of constriction [10, 15]: 10.9%

Question: Which plasma level [11] does the source give for `CC(=O)c1c(O)c(C)c(O)c(Cc2c(O)c3c(c(C(=O)/C=C/c4ccccc4)c2O)OC(C)(C)C=C3)c1O` [rottlerin, Rottlerin] here?
Answer: 2900 ng/mL

Question: With NS-309 as the molecule, how does the “activation of SK/IK channels” value ([9]; 5 μM NS-309) read?
Answer: reversible NS-309 (5 μM) activation of SK/IK channels

Question: And the “endothelial cell membrane potential” value ([9]; NS309)?
Answer: caused hyperpolarization of the endothelial cell membrane potential

Question: And the half-life [12]?
Answer: extremely short half-life

Question: Which “suppression of BK current” value [13] does the source give for “angiotensin II (DRVYIHPF; Angiotensin-2; UniProt P01019 25-32, looked up) [Ang II, circulating angiotensin II]” here?
Answer: 50%

From patent US20180118699A1, “SK AND IK CHANNEL AGONISTS FOR TREATMENT OF HEART FAILURE” (THE TRUSTEES OF COLUMBIA UNIVERSITY IN THE CITY OF NEW YORK, priority 2015, published 2018)
